Source: patent US10323007B1, “N2N N4-disubstituted quinazoline-2,4-diamines and uses thereof” (University of South Florida, priority 2016, dated 2019)
Converted amounts (≈) assume the structure as drawn. Read-outs that look alike come from different tables or passages of the source.

Columns and labels:
Format in all cases: cell-based, Acinetobacter baumannii
A. baumannii 1403 = test: MIC assay, strain 1403
Procedure: (§1) MIC and MBC assays were performed in this study as documented by us previously.^17,23,24,25 The A. baumannii strains used are detailed in Table 7.

A. baumannii 1646 [1] = test: MIC assay, strain 1646
Procedure: as §1

A. baumannii 1649 = test: MIC assay, strain 1649
Procedure: as §1

A. baumannii 1650 = test: MIC assay, strain 1650
Procedure: as §1

A. baumannii 1651 = test: MIC assay, strain 1651
Procedure: as §1

A. baumannii 1652 = test: MIC assay, strain 1652
Procedure: as §1

A. baumannii = test: MIC assay, A. baumannii isolates (strain not given)
Procedure: as §1

A. baumannii 1646 [2] = test: minimal bactericidal concentration (MBC) assay, strain 1646; details: isolate 1646
Description: Lead quinazolines 4, 5, 26, 29, 27, and 30 were selected to be further evaluated for antimicrobial effects. The first assay utilized was a minimal bactericidal concentration (MBC) assay, to assess whether leads compounds were bacteriostatic or bactericidal. The six lead agents were screened to identify their MBC90 towards each of the six A. baumannii isolates used in the SAR studies (Table 8), however for simplicity only the representative data for isolate 1646 is detailed below (Table 6). […] Further to this, we were able to obtain complete eradication of bacterial growth for these two compounds at 1 μM for 24 and 5 μM for 25.
as §1

[3] = Acinetobacter baumannii, 1403, read-out: 1403 MIC
[4] = Acinetobacter baumannii, 1646, read-out: 1646 MIC
[5] = Acinetobacter baumannii, 1649, read-out: 1649 MIC
[6] = Acinetobacter baumannii, 1650, read-out: 1650 MIC
[7] = Acinetobacter baumannii, 1651, read-out: 1651 MIC
[8] = Acinetobacter baumannii, 1652, read-out: 1652 MIC
[9] = Acinetobacter baumannii, strain 1403, Tables 1, 3, 4, 5 and footnotes, read-out: 1403 MIC
[10] = Acinetobacter baumannii, strain 1646, Tables 1, 3, 4, 5 and footnotes, read-out: 1646 MIC
[11] = Acinetobacter baumannii, strain 1649, Tables 1, 3, 4, 5 and footnotes, read-out: 1649 MIC
[12] = Acinetobacter baumannii, strain 1650, Tables 1, 3, 4, 5 and footnotes, read-out: 1650 MIC
[13] = Acinetobacter baumannii, strain 1651, Tables 1, 3, 4, 5 and footnotes, read-out: 1651 MIC
[14] = Acinetobacter baumannii, strain 1652, Tables 1, 3, 4, 5 and footnotes, read-out: 1652 MIC

Compound	MIC (A. baumannii 1403; [3])	MIC (A. baumannii 1646 [1]; [4])	MIC (A. baumannii 1649; [5])	MIC (A. baumannii 1650; [6])	MIC (A. baumannii 1651; [7])	MIC (A. baumannii 1652; [8])	MIC (A. baumannii 1403; [9])	MIC (A. baumannii 1646 [1]; [10])	MIC (A. baumannii 1649; [11])	MIC (A. baumannii 1650; [12])	MIC (A. baumannii 1651; [13])	MIC (A. baumannii 1652; [14])	fold more active than the benzyl analogue 8 (A. baumannii; MIC comparison)	MIC (A. baumannii; Acinetobacter baumannii, strain not given, read-out: MIC)	concentration giving complete eradication of bacterial growth (A. baumannii 1646 [2])
CNc1nc(NCc2ccccc2)nc2ccc(-c3ccccc3)cc12 [Compound 31, N^2-Benzyl-N^4-methyl-6-phenylquinazoline-2,4-diamine]	30 µM (≈ 10.2 µg/mL)	10 µM (≈ 3.4 µg/mL)	20 µM (≈ 6.81 µg/mL)	20 µM (≈ 6.81 µg/mL)	2 µM (≈ 0.681 µg/mL)	50 µM (≈ 17 µg/mL)									
CNc1nc(NCc2ccccc2)c2ccc(Cl)cc2n1 [Compound 13, N^4-Benzyl-7-chloro-N^2-methylquinazoline-2,4-diamine]							> 50 µM	4 µM (≈ 1.2 µg/mL)	> 50 µM	> 50 µM	> 50 µM	> 50 µM			
CNc1nc(NCc2ccccc2)c2cc(C)ccc2n1 [Compound 11, N^4-Benzyl-N^2,6-dimethylquinazoline-2,4-diamine]							> 50 µM	6 µM (≈ 1.67 µg/mL)	> 50 µM	> 50 µM	12 µM (≈ 3.34 µg/mL)	> 50 µM			
CNc1nc(NCCc2ccccc2)nc2ccccc12 [Compound 16, N^4-Methyl-N^2-phenethylquinazoline-2,4-diamine]							> 50 µM	12 µM (≈ 3.34 µg/mL)	> 50 µM	> 50 µM	> 50 µM	> 50 µM	4 fold		
CCc1ccc2nc(NCc3ccccc3)nc(NC)c2c1 [Compound 23, N^2-Benzyl-6-ethyl-N^4-methylquinazoline-2,4-diamine]							30 µM (≈ 8.77 µg/mL)	2 µM (≈ 0.585 µg/mL)	10 µM (≈ 2.92 µg/mL)	30 µM (≈ 8.77 µg/mL)	2 µM (≈ 0.585 µg/mL)	30 µM (≈ 8.77 µg/mL)			
CNc1nc(NCc2ccccc2)nc2ccc(C3=CCCC3)cc12 [Compound 28, N^2-Benzyl-6-(cyclopent-1-en-1-yl)-N^4-methylquinazoline-2,4-diamine]							> 50 µM	2 µM (≈ 0.661 µg/mL)	50 µM (≈ 16.5 µg/mL)	> 50 µM	30 µM (≈ 9.91 µg/mL)	> 50 µM			
CNc1nc(NCc2ccccc2)c2cc(Br)ccc2n1 [Compound 10, N^4-Benzyl-6-bromo-N^2-methylquinazoline-2,4-diamine]							> 50 µM	2 µM (≈ 0.686 µg/mL)	50 µM (≈ 17.2 µg/mL)	> 50 µM	> 50 µM	> 50 µM			
CNc1nc(NCc2ccccc2)nc2ccc(-c3ccco3)cc12 [Compound 32, N^2-Benzyl-6-(furan-2-yl)-N^4-methylquinazoline-2,4-diamine]	40 µM (≈ 13.2 µg/mL)	25 µM (≈ 8.26 µg/mL)	> 50 µM	> 50 µM	15 µM (≈ 4.96 µg/mL)	> 50 µM									
CNc1nc(NCCc2ccccc2)nc2ccc(Br)cc12 [Compound 19, 6-Bromo-N^4-methyl-N^2-phenethylquinazoline-2,4-diamine]							> 50 µM	2 µM (≈ 0.715 µg/mL)	> 50 µM	> 50 µM	10 µM (≈ 3.57 µg/mL)	> 50 µM		2 to 4 µM (≈ 0.715 to 1.43 µg/mL)	
CNc1nc(NCc2ccccc2)nc2ccc(OC)cc12 [Compound 3, N^2-Benzyl-6-methoxy-N^4-methylquinazoline-2,4-diamine]							> 50 µM	2 µM (≈ 0.589 µg/mL)	25 µM (≈ 7.36 µg/mL)	50 µM (≈ 14.7 µg/mL)	10 µM (≈ 2.94 µg/mL)	30 µM (≈ 8.83 µg/mL)			
C=Cc1ccc2nc(NCc3ccccc3)nc(NC)c2c1 [Compound 22, N^2-Benzyl-N^4-methyl-6-vinylquinazoline-2,4-diamine]							25 µM (≈ 7.26 µg/mL)	2 µM (≈ 0.581 µg/mL)	10 µM (≈ 2.9 µg/mL)	20 µM (≈ 5.81 µg/mL)	25 µM (≈ 7.26 µg/mL)	25 µM (≈ 7.26 µg/mL)			
C=C(C)c1ccc2nc(NCc3ccccc3)nc(NC)c2c1 [Compound 24, N^2-Benzyl-N^4-methyl-6-(prop-1-en-2-yl)quinazoline-2,4-diamine]							> 50 µM	2 µM (≈ 0.609 µg/mL)	25 µM (≈ 7.61 µg/mL)	> 50 µM	10 µM (≈ 3.04 µg/mL)	> 50 µM			1 µM
